Values joined by “and” are separate entries in the source; they are usually repeats but may differ in a detail not shown here. Equal values may be shown once.
Tests used:
Rattus norvegicus [1] = conditions: oral, M/F
Rattus norvegicus [2] = conditions: for LD50 / LC50: acute; for NOAEL (% diet): duration: 29 days
[3] = reproduction developmental, duration: 32 days, oral, gavage, Sprague-Dawley, generation: F0
[4] = subchronic, oral, gavage, Sprague-Dawley
[5] = reproduction developmental, inhalation, Wistar

Work on CC(O)CC(C)(C)O (stereo not given) [2-Methyl-2,4-pentanediol] yielded an NOAEL (Rattus norvegicus [1]; subchronic, duration: 90 days, gavage, CD(SD), Deaths: None (there were dead animals by miss-dosing) + Water Consumption: increase + Urinalysis: pH decrease, S.G. increase + Hematology: …) of 450 mg/kg-day.
CCCC=NO [Butyraldehyde oxime] showed an NOEL (Rattus norvegicus [1]; subchronic, gavage, Fischer 344, Deaths + Body Weight Changes: decrease + Urinalysis: Thiocyanate (I1/4mol/24 hr) increase, Thiocyanate/creatinine ratio increase, Creatinine…) of under 25 mg/kg-day.
Work on CCCCCCCCCCCCCl [1-Chlorododecane] yielded an LD50 (Rattus norvegicus [2]; oral, gavage, Sprague-Dawley) of over 2000 mg/kg, an LOAEL (Rattus norvegicus [2]; [3]) of 300 mg/kg-day and an NOAEL (Rattus norvegicus [2]; [3]) of 100 mg/kg-day. The LOAEL (Rattus norvegicus [2]; reproduction developmental, duration: 32 days, oral, gavage, Sprague-Dawley, generation: F1) was 1000 mg/kg-day.
For CC(O)(P(=O)(O)O)P(=O)(O)O [Etidronic acid], the NOAEL (Rattus norvegicus [1]; subchronic, duration: 90 days, diet, Body Weight Changes: decrease + Food Consumption: decrease + Hematology: RBC increase, HGB decrease, HCT decrease + Absolute Organ Weight: …) was over 2880 mg/kg-day.
ClC(Cl)(Cl)c1ccccc1 [Benzotrichloride] showed an NOAEL (Rattus norvegicus [1]; short-term, duration: 28 days, diet, CD, Blood Chemistry: SDH(sorbitol dehydrogenase) increase, LDH increase + Histopathology: Liver: Anisokaryosis associated with pyknosis, …) of under 0.5 ppm.
Work on CC(C)(C)CC(C)(C)N [tert-Octylamine] yielded an LD50 (Rattus norvegicus [2]; oral, gavage, CRL:CD BR) of 218 mg/kg.
In the case of O=C(O)C1CCC(C(=O)O)CC1 (stereo not given) [1,4-Cyclohexanedicarboxylic acid], the LD50 (Rattus norvegicus [2]; oral, gavage, Sprague-Dawley) is reported as 2080 mg/kg, the “NOAEL (% diet)” value (Rattus norvegicus [2]; short-term, oral, diet, F, Sprague-Dawley) is reported as 1 and the “NOAEL (% diet)” value (Rattus norvegicus [2]; short-term, oral, diet, M, Sprague-Dawley) is reported as 1. For the same compound, the NOAEL (Rattus norvegicus [2]; subchronic, duration: 90 days, oral, gavage, F, Wistar) was 300 mg/kg-day and the NOAEL (Rattus norvegicus [2]; subchronic, duration: 90 days, oral, gavage, M, Wistar) was 300 mg/kg-day.
For CCCCCCCCCCCCCOC(=O)c1ccccc1C(=O)OCCCCCCCCCCCCC [Ditridecyl phthalate], the LD50 (Rattus norvegicus [2]; oral, gavage, Sprague-Dawley) was over 2000 mg/kg, the NOAEL (Rattus norvegicus [2]; developmental, oral, gavage, Sprague-Dawley) was 250 mg/kg-day and the NOAEL (Rattus norvegicus [2]; reproduction developmental, oral, gavage, F, Sprague-Dawley) was 50 mg/kg-day. It also gave an NOAEL (Rattus norvegicus [2]; reproduction developmental, oral, gavage, M, Sprague-Dawley) of 250 mg/kg-day, an NOAEL (Rattus norvegicus [2]; reproduction developmental, oral, gavage, Sprague-Dawley, generation: F1) of 250 mg/kg-day and an LOAEL (Rattus norvegicus [2]; [4]) of 50 mg/kg-day. The NOAEL (Rattus norvegicus [2]; [4]) was 10 mg/kg-day.
For O[B-](c1ccccc1)(c1ccccc1)c1ccccc1.[Na+] [Sodium hydroxytriphenylborate], the LD50 (Rattus norvegicus [2]; oral, gavage, Sprague-Dawley) was 1240 mg/kg.
CC=CC [2-Butene] gave an LC50 (Rattus norvegicus [2]; inhalation, Wistar) of over 22900 mg/m3, an LOAEL (Rattus norvegicus [2]; [5]) of 11500 mg/m3 and an NOAEL (Rattus norvegicus [2]; [5]) of 5740 mg/m3.
Cc1cc(S(=O)(=O)[O-])c(N=Nc2c([O-])c(C(=O)O)cc3ccccc23)cc1Cl.[Ba+2] was tested, and the LD50 (Rattus norvegicus [2]; oral, gavage) was at least 5000 mg/kg.
C=C(C)C(=O)OCC[N+](C)(C)C.[Cl-] [(2-(Methacryloyloxy)ethyl)trimethylammonium chloride] was tested, and the LD50 (Rattus norvegicus [2]; oral, gavage, Sprague-Dawley) was over 2000 mg/kg, the NOAEL (Rattus norvegicus [2]; short-term, duration: 28 days, oral, diet, F, Crj:CD) was over 1000 mg/kg-day and the NOAEL (Rattus norvegicus [2]; short-term, duration: 28 days, oral, diet, M, Crj:CD) was over 1000 mg/kg-day.
C=C(C)COc1ccccc1O [2-[(2-methyl-2-propenyl)oxy]phenol] was tested, and the LD50 (Rattus norvegicus [2]; oral, gavage, Sprague-Dawley) was 2840 mg/kg and 2940 mg/kg and 3220 mg/kg and the NOAEL (Rattus norvegicus [2]; reproduction developmental, oral, gavage, Sprague-Dawley) was over 720 mg/kg-day.
Compound O=C(OCCOCCOC(=O)c1ccccc1)c1ccccc1 [Diethylene glycol dibenzoate] has an NOAEL (Rattus norvegicus [2]; developmental, duration: 38 weeks, oral, diet, Sprague-Dawley) of 3300 ppm, an NOAEL (Rattus norvegicus [2]; reproduction developmental, duration: 38 weeks, oral, diet, F, Sprague-Dawley) of 10000 ppm and an NOAEL (Rattus norvegicus [2]; reproduction developmental, duration: 38 weeks, oral, diet, Sprague-Dawley, generation: F0) of 10000 ppm.
Cc1cccc(C#N)c1 [3-Methylbenzonitrile] showed an LD50 (Rattus norvegicus [2]; oral, Sprague-Dawley) of 3000 mg/kg.
For O=C(O)CCC(=O)O [Butanedioic acid], the LD50 (Rattus norvegicus [2]; oral, gavage) was 2260 mg/kg, the LD50 (Rattus norvegicus [2]; oral, gavage, Fischer 344) was over 8000 mg/kg and the LOAEL (Rattus norvegicus [2]; developmental, injection, intramuscular) was 500 mg/kg-day.
With CCCCCCCCCCCCOCCCNCCCN [N1-[3-(Dodecyloxy)propyl]-1,3-propanediamine] the LD50 (Rattus norvegicus [2]; oral, gavage) was 378 mg/kg and 299 mg/kg.
With CC/C=C\C#N [(2Z)-2-Pentenenitrile] the LC50 (Rattus norvegicus [2]; inhalation, CRL:CD BR) was 2820 mg/m3, the NOAEL (Rattus norvegicus [2]; short-term, duration: 28 days, inhalation, CRL:CD BR) was 995 mg/m3 and the NOAEL (Rattus norvegicus [2]; short-term, duration: 28 days, inhalation, F, CRL:CD BR) was 9.95 mg/m3. It also gave an NOAEL (Rattus norvegicus [2]; short-term, duration: 28 days, inhalation, M, CRL:CD BR) of 9.95 mg/m3.
CCCCCCCCCCCCCCCCCC(=O)OCCO [2-Hydroxyethyl octadecanoate] showed an LD50 (Rattus norvegicus [2]; oral, gavage, Wistar) of over 5000 mg/kg.
Work on CCCCCCCCCCCCCCCCCCN(C)C [N,N-Dimethyl-1-octadecanamine] yielded an LD50 (Rattus norvegicus [2]; oral, gavage) of 2120 mg/kg.
